Experiments:
[1] = test system: H1299 cells; assay: MTT cell proliferation assay, H1299; format: cell-based, human; settings: for H1299 cells inhibition rate / inhibition at 10 µM: 10 μM; for H1299 cells inhibition rate: 48 h; for inhibition at 10 µM / IC50: Homo sapiens, NCI-H1299, 48 h; for inhibition at 10 µM: read-out: H1299 cells inhibition rate; for IC50: read-out: IC50 (mean ± SD) H1299
Procedure: (§1) Beas-2b, A431, A549 and H1299 cells were cultured in 96-well plates (5 × 10^3 cells/well) for 16 h, respectively. Subsequently, positive compound 4i and 25 newly synthesized compounds were added at a final concentration of 10 μM or gradient concentrations (0.01, 0.1, 0.5, 1, 5 and 10 μM), co-incubated with the cells for 48 h. MTT (M8180, Solarbio) solutions (5 mg/mL) were then added and incubated for 4 h in the dark. Then, formazan crystals were dissolved with DMSO (D8371, Solarbio), followed by shaking on a shaker (DRAGONLAB, China) for 10 min. Finally, absorbance at 490 nm wavelength for each well was measured with Microplate reader (Molecular Devices, United States) ([Tang et al., 2020]; [Lee et al., 2021]). The results are expressed as mean ± SD from three independent experiments. Cells inhibition rates or IC50 values were calculated using GraphPad Prism 9.5.0.

[2] = test system: A431 cells; assay: MTT cell proliferation assay, A431; format: cell-based, human; settings: for A431 cells inhibition rate / inhibition at 10 µM: 10 μM; for A431 cells inhibition rate: 48 h; for inhibition at 10 µM / IC50: Homo sapiens, A-431, 48 h; for inhibition at 10 µM: read-out: A431 cells inhibition rate; for IC50: read-out: IC50 (mean ± SD) A431
Procedure: as §1

[3] = Oil-water partition coefficient (log P) measurement; format: physicochemical; settings: n-octanol/water, room temperature
Procedure: The partition coefficient between n-octanol and water (log Po/w) is the classical descriptor for Lipophilicity ([Daina et al., 2017]). The test methodology followed previously published protocols ([Wang et al., 2021]). At room temperature, two large Erlenmeyer flasks were taken and filled with n-octanol and water, respectively. The flasks were placed in a constant temperature shaker at 150 rpm for 24 h to saturate the solvents. The mixtures were then transferred to separating funnels under normal pressure to obtain water-saturated n-octanol and n-octanol-saturated water for subsequent use. The target compound (2 mg) was accurately weighed and placed in a 2 mL brown volumetric flask. Anhydrous methanol was added to ultrasonically dissolve the compound, and the mixture was diluted to volume and thoroughly shaken to prepare a 1 mg/mL stock solution. The stock solution was further diluted to obtain 1, 1.5, 2, 2.5, 5 and 10 μg/mL reference solutions for construction of a standard curve using a UV-visible spectrophotometer. An excess amount of the analyte was dissolved in water-saturated n-octanol, and the mixture was shaken at 150 rpm for 24 h at constant temperature to obtain a saturated solution. The saturated solution was allowed to stand, centrifuged, and 1 mL of the supernatant was transferred to a 4 mL centrifuge tube. N-octanol saturated water (1 mL) was added, and the mixture was shaken at 150 rpm for 24 h at constant temperature. After standing for 8 h, the mixture was centrifuged. Appropriate amounts of the n-octanol phase before and after equilibration were diluted with methanol, and concentrations were determined from the standard curve to obtain C0 and C1. The concentration in the n-octanol saturated aqueous phase, Cw, was calculated as Cw = C0 - C1. Thus, log Po/w = […].

[4] = test system: Beas-2b cells; assay: MTT cell proliferation and toxicity assay, Beas-2b; format: cell-based, human; settings: 48 h; for inhibition at 10 µM: Homo sapiens, BEAS-2B, read-out: Beas-2b cells inhibition rate
Procedure: as §1

[5] = test system: A549 cells; assay: MTT cell proliferation assay, A549; format: cell-based, human; settings: for A549 cells inhibition rate / inhibition at 10 µM: 10 μM; for A549 cells inhibition rate: 48 h; for inhibition at 10 µM / IC50: Homo sapiens, A549, 48 h; for inhibition at 10 µM: read-out: A549 cells inhibition rate; for IC50: read-out: IC50 (mean ± SD) A549
Procedure: as §1

For `Fc1cccc(CNc2nc3ccc(Cl)cc3s2)c1` [B5, 6-chloro-N-(3-fluorobenzyl)benzo[d]thiazol-2-amine], the “H1299 cells inhibition rate” value [1] was 51.34 ± 3.03%, the inhibition at 10 µM [1] was greater than 50% and the IC50 [1] was 9.26 ± 1.34 µM. For the same compound, the “A431 cells inhibition rate” value [2] was 59.69 ± 3.62%, the inhibition at 10 µM [2] was greater than 50% and the IC50 [2] was 10.8 ± 0.56 µM. The logP [3] was 3.58 ± 0.11, the inhibition at 10 µM [4] was 20.6 ± 1.85% and the “A549 cells inhibition rate” value [5] was 58.64 ± 1.01%. For the same compound, the inhibition at 10 µM [5] was greater than 50% and the IC50 [5] was 5.44 ± 1 µM.

Work on `COc1cc(CNc2nc3ccc(Cl)cc3s2)cc(OC)c1` [B6, 6-chloro-N-(3,5-dimethoxybenzyl)benzo[d]thiazol-2-amine] yielded an inhibition at 10 µM [1] of 32.8 ± 0.74%, an inhibition at 10 µM [2] of 43.4 ± 1.61% and a logP [3] of 3.36 ± 0.18. The inhibition at 10 µM [4] was 20.6 ± 1.32% and the inhibition at 10 µM [5] was 35.2 ± 2.86%.

In the case of `Clc1ccc2nc(NCc3ccccc3)sc2c1` [B8, N-benzyl-6-chlorobenzo[d]thiazol-2-amine], the “H1299 cells inhibition rate” value [1] is reported as 55.22 ± 2.49%, the inhibition at 10 µM [1] is reported as greater than 50% and the IC50 [1] is reported as 6.69 ± 0.54 µM. The “A431 cells inhibition rate” value [2] was 57.43 ± 3.64%, the inhibition at 10 µM [2] was greater than 50% and the IC50 [2] was 5.36 ± 1 µM. The logP [3] was 3.56 ± 0.16, the inhibition at 10 µM [4] was 18.1 ± 3.22% and the “A549 cells inhibition rate” value [5] was 65.75 ± 0.96%. The inhibition at 10 µM [5] was greater than 50% and the IC50 [5] was 6.25 ± 0.99 µM.

Compound `O=C(Nc1nc2ccc(F)cc2s1)c1ccccc1` [C1, N-(6-fluorobenzo[d]thiazol-2-yl)benzamide] has an inhibition at 10 µM [1] of 28.3 ± 1.25%, an inhibition at 10 µM [2] of 17.5 ± 1.35% and a logP [3] of 2.56 ± 0.14. It also gave an inhibition at 10 µM [4] of 16.3 ± 1.82% and an inhibition at 10 µM [5] of 19.3 ± 1.07%.

With `O=C(Nc1nc2ccc(F)cc2s1)c1c(Cl)cccc1Cl` [C2, 2,6-dichloro-N-(6-fluorobenzo[d]thiazol-2-yl) benzamide] the “H1299 cells inhibition rate” value [1] was 6.80 ± 0.22%, the “A431 cells inhibition rate” value [2] was 5.61 ± 0.26% and the “log P” value [3] was 2.93 ± 0.11. The “Beas-2b cells inhibition rate” value ([4]; 10 μM) was 12.82 ± 1.76% and the “A549 cells inhibition rate” value [5] was 0.27 ± 0.12%.

Work on `COc1ccc(C(=O)Nc2nc3ccc(F)cc3s2)cc1OC` [C3, N-(6-fluorobenzo[d]thiazol-2-yl)-3,4-dimethoxybenzamide] yielded an inhibition at 10 µM [1] of 18 ± 2.52%, an inhibition at 10 µM [2] of 12.3 ± 1.51% and a logP [3] of 2.49 ± 0.39. It also gave an inhibition at 10 µM [4] of 21.3 ± 1.62% and an inhibition at 10 µM [5] of 4.38 ± 0.35%.

For `O=C(Nc1nc2ccc(F)cc2s1)c1ccc([N+](=O)[O-])cc1` [C4, N-(6-fluorobenzo[d]thiazol-2-yl)-4-nitrobenzamide], the inhibition at 10 µM [1] was 45.2 ± 0.55%, the inhibition at 10 µM [2] was 43.1 ± 1.45% and the logP [3] was 3.06 ± 0.23. It also gave an inhibition at 10 µM [4] of 13.4 ± 1.65% and an inhibition at 10 µM [5] of 35.3 ± 1.82%.

In the case of `COc1ccc(C(=O)Nc2nc3ccc(Cl)cc3s2)cc1` [C5, N-(6-chlorobenzo[d]thiazol-2-yl)-4-methoxybenzamide], the “H1299 cells inhibition rate” value [1] is reported as 51.98 ± 0.24%, the inhibition at 10 µM [1] is reported as greater than 50% and the IC50 [1] is reported as 8.94 ± 1.21 µM. The “A431 cells inhibition rate” value [2] was 55.67 ± 2.34%, the inhibition at 10 µM [2] was greater than 50% and the IC50 [2] was 4.35 ± 0.9 µM. For the same compound, the logP [3] was 2.87 ± 0.15, the inhibition at 10 µM [4] was 17.2 ± 1.24% and the “A549 cells inhibition rate” value [5] was 56.33 ± 2.96%. It also gave an inhibition at 10 µM [5] greater than 50% and an IC50 [5] of 9.82 ± 0.98 µM.

In the case of `O=C(Nc1nc2ccc(Cl)cc2s1)c1ccccc1` [C6, N-(6-chlorobenzo[d]thiazol-2-yl)benzamide], the “H1299 cells inhibition rate” value [1] is reported as 59.72 ± 1.84%, the inhibition at 10 µM [1] is reported as greater than 50% and the IC50 [1] is reported as 9.02 ± 0.37 µM. For the same compound, the “A431 cells inhibition rate” value [2] was 57.73 ± 2.12%, the inhibition at 10 µM [2] was greater than 50% and the IC50 [2] was 8.4 ± 1.06 µM. The logP [3] was 3.05 ± 0.17, the inhibition at 10 µM [4] was 20.6 ± 0.52% and the “A549 cells inhibition rate” value [5] was 55.56 ± 2.78%. For the same compound, the inhibition at 10 µM [5] was greater than 50% and the IC50 [5] was 8.17 ± 0.4 µM.

`O=C(Nc1nc2ccc(Cl)cc2s1)c1ccccc1F` [C7, N-(6-chlorobenzo[d]thiazol-2-yl)-2-fluorobenzamide] gave an inhibition at 10 µM [1] of 48.28 ± 0.37%, an inhibition at 10 µM [2] of 40.4 ± 1.33% and a logP [3] of 2.9 ± 0.32. It also gave an inhibition at 10 µM [4] of 21.4 ± 2.25% and an inhibition at 10 µM [5] of 44.6 ± 0.94%.

Compound `COc1cc(CN(Cc2cc(OC)cc(OC)c2)c2nc3ccc(Cl)cc3s2)cc(OC)c1` [D1, 6-chloro-N,N-bis(3,5-dimethoxybenzyl)benzo[d]thiazol-2-amine] has an inhibition at 10 µM [1] of 32.7 ± 1.25%, an inhibition at 10 µM [2] of 38.7 ± 1.56% and a logP [3] of 5.69 ± 0.25. The inhibition at 10 µM [4] was 19.3 ± 1.31% and the inhibition at 10 µM [5] was 15.4 ± 3.46%.

Reference: paper PMC10982501, “Synthesis and biological evaluation of novel benzothiazole derivatives as potential anticancer and antiinflammatory agents” (Frontiers in Chemistry, 2024)
